Values quoted from earlier work, collected in patent US9057089B2, “Methods for natural product optimization” (The University of Wyoming, priority 2008, dated 2015).

What was measured:
[1] = tested on: RpoB-V1275F mutant; settings: rpoB Val→Phe substitution (position 1275)
[2] = tested on: peptidoglycan synthesis; settings: metabolic labeling
[3] = human clinical trials
[4] = tested on: growing E. coli cells
[5] = in vivo
[6] = tested on: transpeptidases (penicillin binding proteins, PBPs)
[7] = tested on: fungi, protozoa, or eukaryotic cells

C/C(=C\Cc1ccccc1)CCC(=O)C[C@H]1C[C@H](O)C/C(C)=C/C/C=C/C/C(CC(=O)O)=C\C(=O)O1 [Rip, ripostatin]
increase of antibiotic MIC values relative to wild type cells [1]: > 16 fold

C/C=C/C/C=C(\C)C(O)CC/C(C)=C/C=C(\C)C(=O)c1c(O)cc([C@H](C)CC/C=C/NC(=O)OC)oc1=O (some centres unmarked) [Cor, corallopyronin]
increase of antibiotic MIC values relative to wild type cells [1]: > 8 fold

myxopyronin
increase of antibiotic MIC values relative to wild type cells [1]: > 32 fold

CCCC1OC(=O)C(C)CC(C)CCCCC(=O)CCCC(CC)/C=C/C=C(\COC)CCC(O)C(O)CC(O)CNC1=O (centres unmarked) [Antibiotic TA, myxovirescin]
peptidoglycan synthesis [2]: blocks peptidoglycan synthesis | therapeutic effect in periodontal diseases [3]: effective therapeutic | three indices (plaque, gingival, and bleeding) ([3]; only two treatments): significantly improved | effect of sera on activity ([4]; sera): not inhibited by sera | growing E. coli cells killed ([4]; within 30 minutes at 2 μg/ml): 99% | safety [5]: safe | inhibition of final cross-linking step catalyzed by transpeptidases [6]: does not inhibit | activity on fungi, protozoa, or eukaryotic cells [7]: not active
